{
  "source": "patent US9302999B2",
  "about": "“Substituted triazoles as herbicides” (E. I. DU PONT DE NEMOURS AND COMPANY, priority 2012, dated 2016)",
  "format_in_all_cases": "in vivo",
  "key": {"corn (Zea mays)": {"system": "corn (Zea mays)", "test": "Test A pre-/postemergence: corn", "conditions": "for Corn plant response rating: Postemergence; for Plant response rating, Corn: Preemergence", "how_it_was_run": "(§1)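 Compounds, formulated with surfactant in non-phytotoxic solvent, were applied as a directed soil spray preemergence and as postemergence sprays to 2–10 cm, one- to two-leaf seedlings grown in loam soil blended with sand; visual injury, 0–100, assessed ~10 days post-treatment against untreated controls.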"}, "[1]": {"system": "morningglory (Ipomoea spp.)", "test": "Test A pre-/postemergence: morningglory", "conditions": "for Morningglory plant response rating: Postemergence; for Plant response rating, Morningglory: Preemergence", "how_it_was_run": "as §1"}, "[2]": {"system": "pigweed (Amaranthus retroflexus)", "test": "Test A pre-/postemergence: pigweed", "conditions": "for Pigweed plant response rating: Postemergence; for Plant response rating, Pigweed: Preemergence", "how_it_was_run": "as §1"}, "[3]": {"system": "foxtail, giant (giant foxtail, Setaria faberii)", "test": "Test A pre-/postemergence: foxtail, giant", "conditions": "for Foxtail, Giant plant response rating: Postemergence; for Plant response rating, Foxtail, Giant: Preemergence", "how_it_was_run": "as §1"}, "[4]": {"system": "ducksalad (Heteranthera limosa)", "test": "Test C flooded paddy test: ducksalad", "conditions": "scale 0 to 100 (0 no effect, 100 complete control)", "how_it_was_run": "(§2)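 2-leaf stage plants; pots flooded 3 cm above soil; compound applied into paddy water, depth maintained. Greenhouse 13–15 d. Visual rating vs controls, 0–100 (0 = no effect, 100 = complete control); dash = no result.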"}, "[5]": {"system": "barnyardgrass (Echinochloa crus-galli)", "test": "Test A pre-/postemergence: barnyardgrass", "conditions": "for Barnyardgrass plant response rating: Postemergence; for Plant response rating, Barnyardgrass: Preemergence", "how_it_was_run": "as §1"}, "[6]": {"system": "velvetleaf (Abutilon theophrasti)", "test": "Test A pre-/postemergence: velvetleaf", "conditions": "for Velvetleaf plant response rating: Postemergence; for Plant response rating, Velvetleaf: Preemergence", "how_it_was_run": "as §1"}, "[7]": {"system": "sedge, umbrella (small-flower umbrella sedge, Cyperus difformis)", "test": "Test C flooded paddy test: sedge, umbrella", "conditions": "scale 0 to 100 (0 no effect, 100 complete control)", "how_it_was_run": "as §2"}, "[8]": {"system": "crabgrass, large (large crabgrass, Digitaria sanguinalis)", "test": "Test A pre-/postemergence: crabgrass, large", "conditions": "for Crabgrass, Large plant response rating: Postemergence; for Plant response rating, Crabgrass, Large: Preemergence", "how_it_was_run": "as §1"}, "rice (Oryza sativa)": {"system": "rice (Oryza sativa)", "test": "Test C flooded paddy test: rice", "conditions": "scale 0 to 100 (0 no effect, 100 complete control)", "how_it_was_run": "as §2"}, "[9]": {"system": "wheat (Triticum aestivum)", "test": "Test A pre-/postemergence: wheat", "conditions": "for Wheat plant response rating: Postemergence; for Plant response rating, Wheat: Preemergence", "how_it_was_run": "as §1"}, "[10]": {"system": "barnyardgrass (Echinochloa crus-galli)", "test": "Test C flooded paddy test: barnyardgrass", "conditions": "scale 0 to 100 (0 no effect, 100 complete control)", "how_it_was_run": "as §2"}, "[11]": {"conditions": "125 g ai/ha, 0 to 100 scale, 0 is no effect, 100 is complete control"}, "[12]": {"conditions": "500 g ai/ha, visual rating on 0 to 100 scale (0 no effect, 100 complete control), approximately ten days"}, "[13]": {"conditions": "125 g ai/ha, 0 to 100 scale (0 no effect, 100 complete control)"}, "[14]": {"conditions": "500 g ai/ha, 0 to 100 scale, 0 is no effect, 100 is complete control"}, "[15]": {"conditions": "Flood (flooded paddy test), 62 g ai/ha, visual rating after 13 to 15 days"}, "[16]": {"conditions": "Flood (flooded paddy test), 125 g ai/ha, visual rating after 13 to 15 days"}, "[17]": {"conditions": "Flood (flooded paddy test), 250 g ai/ha, visual rating after 13 to 15 days"}},
  "data": [
    {"smiles": "Cc1nn(-c2ccccn2)nc1C(=O)c1cccc(C(F)(F)F)c1", "note": "[Compound 60]", "values": [
      {"measurement": "Corn plant response rating", "setting": "corn (Zea mays); [11]", "value": 0},
      {"measurement": "Corn plant response rating", "setting": "corn (Zea mays); [12]", "value": 10},
      {"measurement": "Plant response rating, Corn", "setting": "corn (Zea mays); [13]", "value": 0},
      {"measurement": "Plant response rating, Corn", "setting": "corn (Zea mays); [14]", "value": 0},
      {"measurement": "Morningglory plant response rating", "setting": "[1]; [11]", "value": 0},
      {"measurement": "Morningglory plant response rating", "setting": "[1]; [12]", "value": 0},
      {"measurement": "Plant response rating, Morningglory", "setting": "[1]; [13]", "value": 0},
      {"measurement": "Plant response rating, Morningglory", "setting": "[1]; [14]", "value": 0},
      {"measurement": "Pigweed plant response rating", "setting": "[2]; [11]", "value": 0},
      {"measurement": "Pigweed plant response rating", "setting": "[2]; [12]", "value": 10},
      {"measurement": "Plant response rating, Pigweed", "setting": "[2]; [13]", "value": 0},
      {"measurement": "Plant response rating, Pigweed", "setting": "[2]; [14]", "value": 0},
      {"measurement": "Foxtail, Giant plant response rating", "setting": "[3]; [11]", "value": 0},
      {"measurement": "Foxtail, Giant plant response rating", "setting": "[3]; [12]", "value": 0},
      {"measurement": "Plant response rating, Foxtail, Giant", "setting": "[3]; [13]", "value": 0},
      {"measurement": "Plant response rating, Foxtail, Giant", "setting": "[3]; [14]", "value": 0},
      {"measurement": "Plant response rating, Ducksalad", "setting": "[4]; [15]", "value": 0},
      {"measurement": "Plant response rating, Ducksalad", "setting": "[4]; [16]", "value": 0},
      {"measurement": "Plant response rating, Ducksalad", "setting": "[4]; [17]", "value": 0},
      {"measurement": "Plant response rating, Ducksalad", "setting": "[4]; Flood, 31 g ai/ha", "value": 0},
      {"measurement": "Barnyardgrass plant response rating", "setting": "[5]; [11]", "value": 0},
      {"measurement": "Barnyardgrass plant response rating", "setting": "[5]; [12]", "value": 10},
      {"measurement": "Plant response rating, Barnyardgrass", "setting": "[5]; [13]", "value": 0},
      {"measurement": "Plant response rating, Barnyardgrass", "setting": "[5]; [14]", "value": 0},
      {"measurement": "Velvetleaf plant response rating", "setting": "[6]; [11]", "value": 0},
      {"measurement": "Velvetleaf plant response rating", "setting": "[6]; [12]", "value": 0},
      {"measurement": "Plant response rating, Velvetleaf", "setting": "[6]; [13]", "value": 0},
      {"measurement": "Plant response rating, Velvetleaf", "setting": "[6]; [14]", "value": 0},
      {"measurement": "Plant response rating, Sedge, Umbrella", "setting": "[7]; [15]", "value": 0},
      {"measurement": "Plant response rating, Sedge, Umbrella", "setting": "[7]; [16]", "value": 0},
      {"measurement": "Plant response rating, Sedge, Umbrella", "setting": "[7]; [17]", "value": 0},
      {"measurement": "Plant response rating, Sedge, Umbrella", "setting": "[7]; Flood, 31 g ai/ha", "value": 0},
      {"measurement": "Crabgrass, Large plant response rating", "setting": "[8]; [11]", "value": 0},
      {"measurement": "Crabgrass, Large plant response rating", "setting": "[8]; [12]", "value": 10},
      {"measurement": "Plant response rating, Crabgrass, Large", "setting": "[8]; [13]", "value": 0},
      {"measurement": "Plant response rating, Crabgrass, Large", "setting": "[8]; [14]", "value": 0},
      {"measurement": "Plant response rating, Rice", "setting": "rice (Oryza sativa); [15]", "value": 0},
      {"measurement": "Plant response rating, Rice", "setting": "rice (Oryza sativa); [16]", "value": 0},
      {"measurement": "Plant response rating, Rice", "setting": "rice (Oryza sativa); [17]", "value": 0},
      {"measurement": "Plant response rating, Rice", "setting": "rice (Oryza sativa); Flood, 31 g ai/ha", "value": 0},
      {"measurement": "Wheat plant response rating", "setting": "[9]; [11]", "value": 0},
      {"measurement": "Wheat plant response rating", "setting": "[9]; [12]", "value": 0},
      {"measurement": "Plant response rating, Wheat", "setting": "[9]; [13]", "value": 0},
      {"measurement": "Plant response rating, Wheat", "setting": "[9]; [14]", "value": 0},
      {"measurement": "Plant response rating, Barnyardgrass", "setting": "[10]; [15]", "value": 0},
      {"measurement": "Plant response rating, Barnyardgrass", "setting": "[10]; [16]", "value": 0},
      {"measurement": "Plant response rating, Barnyardgrass", "setting": "[10]; [17]", "value": 0},
      {"measurement": "Plant response rating, Barnyardgrass", "setting": "[10]; Flood, 31 g ai/ha", "value": 0}
    ]}
  ]
}
